The nature of the series: In vitro permeation test: delivery of Halobetasol Propionate to the skin. Format: in vitro ADME. The conditions noted are these: Formulations 1 and 2. From the text: The ability of the formulations of the present invention to deliver the APIs to their active sites was investigated by in vitro permeation tests.

For `CCC(=O)O[C@]1(C(=O)CCl)[C@@H](C)C[C@H]2[C@@H]3C[C@H](F)C4=CC(=O)C=C[C@]4(C)[C@@]3(F)[C@@H](O)C[C@@]21C` [Halobetasol Propionate, (6α, 11β, 16β)-21-Chloro-6,9-difluoro-11-hydroxy-16-methyl-17-(1-oxopropoxy) pregna-1,4-diene-3,20-dione], the “Halobetasol Propionate receiver media concentration” value was “no receiver media concentration”.

For the origin of these results see patent US20260174783A1, “HALOBETASOL PROPIONATE-LIDOCAINE FORMULATIONS” (priority 2023, published 2026).
